# Laboratory results from patent publication US5872126A, “Methods and compositions for treating preterm labor” (priority 1997, dated 1999).
# “And” between values parts separate entries of the source, which are not always exact repeats. Equal entries are not always repeated.
# T1: 5α-reductase in rat placenta (Rattus norvegicus, UniProt P24008)
# T1 construct: microsomes prepared from rat placenta; tissue Bioproducts for Science; host or cells: rat placenta (microsomes, 100,000×g pellet of homogenate)
# T1 sequence (P24008 1-259): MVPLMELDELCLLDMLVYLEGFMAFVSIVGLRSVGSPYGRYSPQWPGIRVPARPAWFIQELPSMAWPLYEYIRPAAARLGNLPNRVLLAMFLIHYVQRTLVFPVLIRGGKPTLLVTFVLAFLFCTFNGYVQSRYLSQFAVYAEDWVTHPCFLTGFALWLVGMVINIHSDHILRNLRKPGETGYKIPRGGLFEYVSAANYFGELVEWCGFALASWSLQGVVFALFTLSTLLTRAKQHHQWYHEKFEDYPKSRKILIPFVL
# T2: rat type 1 5α-reductase (Rattus norvegicus, UniProt P24008)
# T2 construct: made in house; host or cells: COS cells
# T2 sequence (P24008 1-259): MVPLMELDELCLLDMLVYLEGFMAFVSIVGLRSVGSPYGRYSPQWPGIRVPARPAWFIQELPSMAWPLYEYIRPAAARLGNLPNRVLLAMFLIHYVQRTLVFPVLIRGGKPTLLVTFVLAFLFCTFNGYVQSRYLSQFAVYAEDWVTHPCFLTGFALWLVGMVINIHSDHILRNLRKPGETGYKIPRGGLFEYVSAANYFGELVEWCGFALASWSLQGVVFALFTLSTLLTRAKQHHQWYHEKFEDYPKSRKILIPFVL
# T3: rat type 2 5α-reductase (Rattus norvegicus, UniProt P31214)
# T3 construct: made in house; host or cells: COS cells
# T3 sequence (P31214 1-254): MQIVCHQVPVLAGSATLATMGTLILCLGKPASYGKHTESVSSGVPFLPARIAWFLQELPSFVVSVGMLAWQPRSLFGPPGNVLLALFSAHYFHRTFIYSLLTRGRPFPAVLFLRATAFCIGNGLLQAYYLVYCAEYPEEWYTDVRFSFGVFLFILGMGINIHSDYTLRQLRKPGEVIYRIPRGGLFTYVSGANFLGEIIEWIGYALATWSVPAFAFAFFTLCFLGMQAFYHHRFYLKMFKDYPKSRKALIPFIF
# B1: 5α-reductase in rat placenta (Rattus norvegicus) (protein)
# chain: MVPLMELDELCLLDMLVYLEGFMAFVSIVGLRSVGSPYGRYSPQWPGIRVPARPAWFIQELPSMAWPLYEYIRPAAARLGNLPNRVLLAMFLIHYVQRTLVFPVLIRGGKPTLLVTFVLAFLFCTFNGYVQSRYLSQFAVYAEDWVTHPCFLTGFALWLVGMVINIHSDHILRNLRKPGETGYKIPRGGLFEYVSAANYFGELVEWCGFALASWSLQGVVFALFTLSTLLTRAKQHHQWYHEKFEDYPKSRKILIPFVL
# notes: microsomes prepared from rat placenta; tissue Bioproducts for Science; host or cells: rat placenta (microsomes, 100,000×g pellet of homogenate)
# B2: rat type 1 5α-reductase (Rattus norvegicus) (protein)
# chain: MVPLMELDELCLLDMLVYLEGFMAFVSIVGLRSVGSPYGRYSPQWPGIRVPARPAWFIQELPSMAWPLYEYIRPAAARLGNLPNRVLLAMFLIHYVQRTLVFPVLIRGGKPTLLVTFVLAFLFCTFNGYVQSRYLSQFAVYAEDWVTHPCFLTGFALWLVGMVINIHSDHILRNLRKPGETGYKIPRGGLFEYVSAANYFGELVEWCGFALASWSLQGVVFALFTLSTLLTRAKQHHQWYHEKFEDYPKSRKILIPFVL
# notes: made in house; host or cells: COS cells
# B3: rat type 2 5α-reductase (Rattus norvegicus) (protein)
# chain: MQIVCHQVPVLAGSATLATMGTLILCLGKPASYGKHTESVSSGVPFLPARIAWFLQELPSFVVSVGMLAWQPRSLFGPPGNVLLALFSAHYFHRTFIYSLLTRGRPFPAVLFLRATAFCIGNGLLQAYYLVYCAEYPEEWYTDVRFSFGVFLFILGMGINIHSDYTLRQLRKPGEVIYRIPRGGLFTYVSGANFLGEIIEWIGYALATWSVPAFAFAFFTLCFLGMQAFYHHRFYLKMFKDYPKSRKALIPFIF
# notes: as for B2
# What was measured:
# [1] = cited from earlier work; for side effects: human, in vivo
# human type 2 enzyme = conditions: cited from earlier work
# [2] = biological target: T1, 5α-reductase in rat placenta; experiment: 5α-reductase assay, rat placenta microsomes; format: biochemical; conditions: read-out: IC50 finasteride
# Description: (§1) The 5α-reductase content of microsomes prepared from rat placenta was determined.
# (§2) Rat placenta was obtained from Bioproducts for Science. The tissue was homogenized in 10 volumes of buffer containing 0.25 sucrose, 40 mM potassium phosphate pH 6.5, 5 mM magnesium sulfate, 25 mM potassium chloride, 1 mM phenylmethylsulfonyl fluoride, and 1 mM dithiothreitol using a Potter Elverhjem homogenizer. The homogenate was centrifuged at 100,000×g for 60 minutes at 4° C. The pellet was resuspended in 1.5 volumes of buffer. Glycerol was added to the resuspended pellet to a final concentration of 20%. COS cell expressed rat 5α-reductase was used as the source of type 1 and type 2 in these studies for comparison.
# (§3) All samples in the enzyme assay were tested in a reaction mixture containing 33 mM succinic acid, 44 mM imidazole, 33 mM diethanolamine (SID), pH 5.5 and pH 7.5, 0.5 μM [7-^3 H]-testosterone (specific activity approximately 20-30 Ci/mmol), 1.5 μM unlabeled testosterone, 1 mM DTT and […] NADPH in a final volume of […]. The assay was initiated by the addition of enzyme and incubated at 37° C. for 15 min.
# rat type 1 5α-reductase = biological target: T2, rat type 1 5α-reductase; experiment: 5α-reductase assay, COS cell expressed rat type 1; format: biochemical; conditions: recombinant rat type 1; read-out: IC50 finasteride
# Description: as §2, §3
# rat type 2 5α-reductase = biological target: T3, rat type 2 5α-reductase; experiment: 5α-reductase assay, COS cell expressed rat type 2; format: biochemical; conditions: read-out: IC50 finasteride
# Description: as §2, §3
# [3] = system: pregnancy and myometrial contractile activity in the rat; conditions: exogenous progesterone; cited from earlier work
# [4] = system: parturition in mice homozygous for genetic null mutations of type 1 5α-reductase; conditions: mice homozygous for type 1 5α-reductase null mutations; cited from earlier work
# [5] = system: parturition in pregnant rats; conditions: oral dose 10 mg/kg on GD 21; rats treated with 200 mg/kg progesterone subcutaneously; cited from earlier work
# parturition in the rat = experiment: Parturition with test compound and progesterone antagonist RU-486 (Example 3); format: in vivo, Sprague-Dawley rat; conditions: RU-486 10 mg/kg on GD 21 (Group 2)
# Description: In order to determine if the effects in the experiments conducted in Examples 1 and 2 were due to decreased progesterone catabolism associated with inhibition of 5α-reductase by the 5α-reductase type 1 inhibitor 3-oxo-4-aza-4,7β-dimethyl-16β-(4-chlorophenoxy)-5α-androstane ("test compound"), the following study was performed with the 5α-reductase inhibitor 3-oxo-4-aza-4,7β-dimethyl-16β-(4-chlorophenoxy)-5α-androstane and the progesterone antagonist RU-486.
# Fifty-six pregnant female Sprague-Dawley rats (Charles River Laboratories, Raleigh, N.C.), approximately 10.5 weeks old weighing from 212 to 319 grams were employed in the study. They were fed and housed as described in EXAMPLE 1. The females were assigned to the following groups based on a weight independent random allocation scheme:
# Control (Control article)
# test compound @ 20 mg/kg/day
# A dose of 10 mg/kg off RU-486 was selected based on the studies of Abdellilah et al., Progesterone and Mifepristone modify principally the response of circular myometrium to oxytocin in preparturient rats: comparison with response to acetylcholine and to calcium J. Pharmacol. and Exp. Therp.
# The drugs were administered by oral gavage. The control article and vehicle consisted of 0.5% methylcellulose in deionized water with 0.02% sodium lauryl sulfate (SLS) and were prepared on a weekly basis and refrigerated when not in use. The test compound formulation (4 mg/mL, in vehicle) was prepared on a weekly basis and was refrigerated when not in use. The RU-486 formulation (2 mg base compound/mL, in 0.5% methylcellulose in deionized water) was prepared on a daily basis.
# [6] = substrate: C[C@]12CC[C@H]3[C@@H](CCC4=CC(=O)CC[C@@]43C)[C@@H]1CC[C@@H]2O; experiment: 5α-reductase assay, rat placenta microsomes; format: biochemical; conditions: other: rat placenta microsomes; 37.0 °C
# Description: as §1, §2, §3
# [7] = substrate: C[C@]12CC[C@H]3[C@@H](CCC4=CC(=O)CC[C@@]43C)[C@@H]1CC[C@@H]2O; experiment: 5α-reductase assay, COS cell expressed rat type 1; format: biochemical; conditions: other: recombinant rat type 1; 37.0 °C
# Description: as §2, §3
# [8] = substrate: C[C@]12CC[C@H]3[C@@H](CCC4=CC(=O)CC[C@@]43C)[C@@H]1CC[C@@H]2O; experiment: 5α-reductase assay, COS cell expressed rat type 2; format: biochemical; conditions: other: rat type 2; 37.0 °C
# Description: as §2, §3
molecule,measurement,setting,value
O=S(=O)([O-])[O-].[Mg+2] [magnesium sulfate],adverse effects at plasma concentrations above the therapeutic range,[1]; above 4 to 8 mg/dL,"inhibition of cardiac conduction and neuromuscular transmission, respiratory depression and cardiac arrest"
"CC(C)(C)NC(=O)[C@H]1CC[C@H]2[C@@H]3CC[C@H]4NC(=O)C=C[C@]4(C)[C@H]3CC[C@]12C [finasteride, 17β-(N-tert-butylcarbamoyl)-3-oxo-4-aza-5α-androst-1-en-3-one]",inhibition of the human type 2 enzyme,human type 2 enzyme,potent inhibitor
same,IC50,[2],11 nM
same,IC50,rat type 1 5α-reductase,13 nM
same,IC50,rat type 2 5α-reductase,1 nM
CC(=O)[C@H]1CC[C@H]2[C@@H]3CCC4=CC(=O)CC[C@]4(C)[C@H]3CC[C@]12C [progesterone],effect on pregnancy and myometrial contractile activity,[3],prolong pregnancy and impair myometrial contractile activity
"C[C@]12CC[C@@H](O)C[C@@H]1CC[C@@H]1[C@@H]2CC[C@]2(C)[C@@H](O)CC[C@@H]12 [Example 3α-Adiol, 5α-androstan-3α,17β-diol]",mice in which parturition was induced,[4],93%
CCO [ethanol],effectiveness in preventing premature labor,[1]; compared with ritodrine,as effective as ritodrine in preventing premature labor
same,reduction in the incidence of fetal respiratory distress,[1]; compared with ritodrine,does not produce a corresponding reduction in the incidence of fetal respiratory distress
"CC#C[C@]1(O)CC[C@H]2[C@@H]3CCC4=CC(=O)CCC4=C3[C@@H](c3ccc(N(C)C)cc3)C[C@@]21C [RU-486, reference compound]",mice in which parturition was induced,[4],100%
same,induction of parturition,[5],able to induce parturition
same,Mean Length of Gestation ± SD,"parturition in the rat; only females completing delivery, 10 mg/kg",22.3 days and 22.3 ± 0.4 days
same,number of females completing parturition,parturition in the rat; delivery day GD 22.0,7
same,number of females completing parturition,parturition in the rat; delivery day GD 22.5,5
same,number of females completing parturition,parturition in the rat; delivery day GD 23.0,2
CC(C)(C)NCC(O)c1ccc(O)c(CO)c1 (stereo not drawn) [salbutamol],side effects,[1],side effects similar to those of ritodrine
CC(C)(C)NCC(O)c1cc(O)cc(O)c1 (stereo not drawn) [terbutaline],side effects,[1],side effects similar to those of ritodrine
CC(NCCc1ccc(O)cc1)C(O)c1ccc(O)cc1 (stereo not drawn) [ritodrine],side effects,[1],"tachycardia, increased renin secretion, hyperglycemia (and reactive hypoglycemia in the infant)"
B1,Km,[6],5.2 µM
B2,Km,[7],1.7 µM
B3,Km,[8],0.15 µM
